These results are taken from patent US8937039B2, “Peptide-based peroxidase inhibitors and methods of using same” (The Medical College of Wisconsin, Inc., priority 2009, dated 2015).

The target of assay [1] is T1, MPO (Homo sapiens, UniProt P05164).
T1 sequence (P05164 49-745): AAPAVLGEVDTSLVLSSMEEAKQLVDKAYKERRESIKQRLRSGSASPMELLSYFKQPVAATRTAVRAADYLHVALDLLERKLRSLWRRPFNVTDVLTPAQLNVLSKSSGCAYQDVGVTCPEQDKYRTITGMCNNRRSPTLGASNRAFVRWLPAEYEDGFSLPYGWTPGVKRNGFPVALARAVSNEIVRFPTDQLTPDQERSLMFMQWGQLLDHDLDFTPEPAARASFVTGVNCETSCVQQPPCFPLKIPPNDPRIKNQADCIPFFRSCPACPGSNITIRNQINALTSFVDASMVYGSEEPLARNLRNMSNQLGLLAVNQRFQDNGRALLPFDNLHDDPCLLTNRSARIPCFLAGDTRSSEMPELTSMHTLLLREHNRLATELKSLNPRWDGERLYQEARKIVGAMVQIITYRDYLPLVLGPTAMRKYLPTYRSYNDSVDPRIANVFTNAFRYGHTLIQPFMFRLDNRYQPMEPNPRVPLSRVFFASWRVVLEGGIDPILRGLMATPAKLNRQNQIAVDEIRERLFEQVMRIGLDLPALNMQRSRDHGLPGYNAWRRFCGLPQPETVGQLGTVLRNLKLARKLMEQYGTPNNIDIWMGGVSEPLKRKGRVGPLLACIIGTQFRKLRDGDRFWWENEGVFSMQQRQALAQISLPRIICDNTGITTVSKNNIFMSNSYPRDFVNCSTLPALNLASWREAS
The assay is described as follows: MPO-mediated nitration of LDL (dot blot). Particulars: MPO 50 nM, H2O2 50 μM, NaNO2 50 μM, 37° C., 4 h. More on the design: purchased Lee Biosolutions (St. Louis, Mo.). The class given is biochemical. The procedure: MPO-mediated Nitration of LDL: LDL (0.5 mg/mL) was incubated with MPO (50 nM), H2O2 (50 μM), NaNO2 (50 μM) and increasing concentrations of KYC in phosphate buffer (100 mM, pH 7.4) containing DTPA (100 μM) at 37° C. for 4 h. Reactions were stopped by addition of catalase (2,000 units/mL). Formation of NO2Tyr was assessed by dot blot analysis. Briefly, LDL solutions were mixed with 1% SDS and centrifuged (12000 g, 15 min) Aliquots of supernatants were applied to a nitrocellulose membrane with a dot blot apparatus (Biorad model: Bio-Dot). The levels of NO2Tyr were visualized using a rabbit polyclonal anti-NO2Tyr antibody (EMD, Gibbstown, N.J.) and the ECL plus kit from Thermo-Peirce (Rockford, Ill.).

Assay [2] has as its system facialis arteries from non-treated SCD mice. Description: Vasodilatation of facialis arteries from untreated SCD mice, peptide added ex vivo. More on the design: species or system mouse. Particulars: KYC 1.5 μg/ml, 20 min. The procedure: For vessels treated with KYC (ex-vivo): Using untreated SCD mice, the vessels were isolated/cannulated the same as for the mice treated with KYC in vivo. After the control dose-response curve using acetylcholine (ACh, 10^−7-10^−4 M) and subsequent washing, the vessels were incubated with KYC 1.5 μg/ml for 20 minutes, pre-constricted, and exposed to acetylcholine (ACh, 10^−7-10^−4 M). Vasodilation to papaverine (2.0×10^−4 M) was determined after all treatments to ensure smooth muscle viability. Vasodilation was calculated as a percent of maximal vessel diameter change.

The target in assay [3] is T1, MPO. Description: MPO-mediated nitration of BSA (western blot for nitrotyrosine). The arrangement: purchased Lee Biosolutions (St. Louis, Mo.). The settings on record: for MPO-mediated BSA nitration (in words): H2O2 100 μM, nitrite 100 μM. It counts as biochemical. How it is done: MPO-mediated Nitration of Bovine Serum Albumin (BSA). BSA (0.5 mg/mL) was incubated with MPO (20 nM), H2O2 (100 μM), nitrite (100 μM) and increasing concentrations of KYC in phosphate buffer (100 mM, pH 7.4) containing DTPA (100 μM) for 30 min. Reactions were stopped by addition of catalase. Nitrotyrosine formation was assessed by western blot analysis.
MPO-mediated Nitration of Bovine Serum Albumin (BSA): BSA (0.5 mg/mL) was incubated with MPO (20 nM), H2O2 (25 μM), NaNO2 (50 μM) and increasing concentrations of KYC in phosphate buffer (100 mM, pH 7.4) containing DTPA (100 μM) for 30 min. Reactions were halted by addition of catalase (2,000 units/mL). NO2Tyr formation was assessed by western blot analysis with an anti-NO2Tyr rabbit polyclonal antibody (EMD, Gibbstown, N.J.).

Residues, ends and D or L forms follow the SMILES beside them.

Usually inhibition stands for the change of the read-out against control, counted positive when it falls. Regarding `CC(=O)N[C@@H](CCCCN)C(=O)N[C@@H](Cc1ccc(O)cc1)C(=O)N[C@@H](CS)C(N)=O` [KYC, N-acetyl Lysyltyrosylcysteine Amide] (Ac-Lys-Tyr-Cys-NH2), on MPO [1], the “NO2Tyr in LDL (in words)” value is “markedly reduces”. For the same molecule, the “Vasodilatation in response to ACh, peptide added to vessel bath (in words)” value in assay [2] was “did not increase vasodilatation”. Further, the inhibition at 12.5 µM on MPO [3] (12.5 μM KYC, H2O2 25 μM, NaNO2 50 μM, read-out: Inhibition of NO2Tyr formation in BSA) stood at 50%. Moreover, the “MPO-mediated BSA nitration (in words)” value on MPO [3] (30 μM KYC) is reported as “inhibits”; on MPO [3] (250 μM KYC), “essentially ablates”. Further, the “NO2Tyr formation in BSA (in words)” value on MPO [3] (50 μM KYC, H2O2 25 μM, NaNO2 50 μM) was “essentially ablated”.
